According to patent publication US8980946B2, “Treatment of obesity using non-daily administration of 6-O-(4-dimethylaminoethoxy) cinnamoyl fumagillol” (Zafgen, Inc., priority 2010, dated 2015):
“And” between values parts separate entries of the source, which are not always exact repeats. Identical values can stand only once. Marks after values point to notes of the source that are not given here.

Assays:
[1] = Visual Analog Scale of hunger in obese patients, twice weekly dosing; assay type: in vivo, human; settings: successive twice weekly doses, 0.9 mg/m^2 cohort
Experimental: FIG. 2 depicts visual analogue scale of hunger decline by approximately 50% with body weight change (percent) with twice weekly dosing off 0.1 mg/m^2, 0.3 mg/m^2, and 0.9 mg/m^2 (approximately 1.8 to 2.1 mg) of 6-O-(4-dimethylaminoethoxy)cinnamoyl fumagillol in human patients. Values are means (n=6 per dose level) of changes in fasted Visual Analog Scale scores for each visit day vs. Day 1 for population; p values derived from 2-way ANOVA with Bonferroni post-test comparisons (*, p<0.05; **, p<0.01 vs. placebo).
(§1) The compound was intravenously administered to each patient of a cohort (except for a placebo cohort) twice weekly for 26 days. Each of patients in the three non-placebo cohorts received either 0.1 mg/m^2 (cohort 1); 0.3 mg/m^2 (cohort 2); or 0.9 mg/m^2 (cohort 3) doses of the compound at the time of administration. The trial was conducted under the appropriate government and medical supervision.
(§2) FIG. 1 depicts the body weight change (loss) as a percent before each administration of the twice weekly dose for the 0.9 mg/m^2 cohort. FIG. 2 depicts the Visual Analog Scale reports of hunger decline about 50% following successive biweekly dose administration for the 0.9 mg/m^2 cohort.

[2] = test system: Sprague-Dawley male rats; assay: Testis toxicity study, subcutaneous administration daily or every third day for 4 weeks; assay type: in vivo, rat
Experimental: A testis toxicity study was performed using daily subcutaneous administration or every other day (every third day) subcutaneous administration in rats. […] Additionally, equivalent total exposure using a 3 mg/kg dose administered every third day was compared as well.
64 Sprague-Dawley male rats within ±20% of mean body weight at initiation of dosing were used for the study. Vehicle control or Compound was administered once daily or every 3rd day for 4 weeks, at a volume of 5 mL/kg, as follows, with groups 1-4 for toxicity and groups 5-8 for toxicokinetic studies.
Upon completion of the study, complete necropsy examinations are performed, and the seminal vesicle, testes, and other organs are weighed at terminal necropsy. Terminal body weights are determined just prior to necropsy for assessment of organ weight changes.

[3] = test system: adiponectin; assay: Adiponectin levels in the serum of patients undergoing the trial; assay type: in vivo, human; settings: with treatment
Experimental: Levels of adiponectin in the serum of patients undergoing the trial were also measured.

[4] = Injection site tolerability; assay type: in vivo; settings: doses up to 6 mg
[5] = human, in vivo
Experimental: as §1
There was a significant correlation between weight loss of patients and maintained exposure of 0.02 ng/mL of the drug above the level of quantitation of the assay 24 hours after dosing, as shown in FIG. 4 (circled data point is exposure of one poor responder below the level of quantitation of assay). The PK profile at day 26 is representative of steady state (see FIG. 5).

[6] = Twice weekly intravenous administration to obese patients for 26 days: body weight; assay type: in vivo, human
Experimental: as §1
Table 1 summarizes body weight determination of the 9 patients in the 0.9 mg/m^2 cohort on the day of the first dose and prior to a second dose administered three or four days later.
as §2
All of the subjects of the trial described in Example 1 received doses ranging from 1.8 to 2.2 mg with each administration (given twice weekly). However, weight change was not strictly associated with dose delivered. Instead, response was strongly associated with dose administered per unit excess body weight, as compared to weight change associated with dose delivered per unit body weight.

[7] = rat, s.c., 4 weeks, 1 mg/kg daily
[8] = rat, s.c., 4 weeks, 1 mg/kg every 3rd day
[9] = rat, s.c., 4 weeks, 3 mg/kg every 3rd day
[10] = average of 9 patients, 0.9 mg/m^2 cohort, first dose to before second dose
[11] = individual subject, 0.9 mg/m^2 cohort, first dose to before second dose three or four days later

## CO[C@@H]1[C@H](OC(=O)/C=C/c2ccc(OCCN(C)C)cc2)CC[C@]2(CO2)[C@H]1[C@@]1(C)O[C@@H]1CC=C(C)C.O=C(O)C(=O)O [6-O-(4-dimethylaminoethoxy)cinnamoyl fumagillol oxalate]
[1]
  Visual Analog Scale hunger decline: about 50%
[1]; listed as 6-O-(4-dimethylaminoethoxy)cinnamoyl fumagillol
  Visual Analog Scale hunger decline: approximately 50%
[2]; rat, 1 mg/kg Q3D
  Clinical Chemistry findings: No findings
  Hematology findings: No findings
  Macroscopic findings: No findings
  Microscopic findings: No findings
  Organ weight findings: No findings
[2]; rat, 1 mg/kg/day
  Clinical Chemistry: Higher albumin/globulin: Higher albumin/globulin (1.12X)
  Clinical Chemistry: Higher potassium: Higher potassium (1.2X)
  Clinical Chemistry: Reduced Inorg phosphate: Reduced Inorg phosphate (0.96 X)
  Clinical Chemistry: Reduced alk phos: Reduced alk phos (0.72X)
  Hematology findings: Reduced blood cell counts
  Hematology: Basophil: 0.55 X
  Hematology: Eosinophil: 0.75 X
  Hematology: Large unstained cell: (0.67X)
  Hematology: Lymphocyte: 0.65 X
  Hematology: Monocyte: 0.79 X
  Hematology: Neutrophil: 0.83 X
  Hematology: WBC: 0.68 X
  Macroscopic findings: Smaller testes and epididymides
  Microscopic findings, lymph node: Lymph node atrophy
  Microscopic: Germ cell depletion/degeneration (incidence): Germ cell depletion/degeneration 9/10
  Organ weight: Adrenal: (1.24X)
  Organ weight: Brain: 1.15 X
  Organ weight: Epididymides: 0.88 X
  Organ weight: Liver: 0.85 X
  Organ weight: Prostate: 0.83 X
  Organ weight: Salivary gland: 0.87 X
  Organ weight: Seminal vesicle: 0.79 X
  Organ weight: Spleen: 0.71 X
  Organ weight: Testes: 0.83 X
  Organ weight: Thymus: 0.86 X
  Organ weight: Thyroid: 0.82 X
  overall findings: adverse findings (e.g. blood dyscrasias and/or irreversible testis lesions)
[2]; rat, 3 mg/kg Q3D
  Clinical Chemistry: Higher albumin/globulin: (1.09X)
  Hematology findings: No findings
  Macroscopic findings: No findings
  Microscopic findings: No findings
  Organ weight findings: No findings
[2]; rat, 3 mg/kg every three days
  animal weight: reduces animal weight significantly
  overall findings: does not show any significant adverse findings
[2]; [7]
  Epididymides absolute weight: 1.130 g
  Prostate absolute weight: 0.546 g
  Seminal Vesicles absolute weight (g): 1.201** g
  Testes absolute weight (g): 2.569* g
  Thymus absolute weight: 0.343 g
[2]; [8]
  Epididymides absolute weight: 1.249 g
  Prostate absolute weight: 0.710 g
  Seminal Vesicles absolute weight: 1.523 g
  Testes absolute weight: 3.097 g
  Thymus absolute weight: 0.421 g
[2]; [9]
  Epididymides absolute weight: 1.267 g
  Prostate absolute weight: 0.663 g
  Testes absolute weight: 3.273 g
  Thymus absolute weight: 0.423 g
[2]; rats administered with less frequent dosing (every third day)
  tissue weight effects (testes and seminal vesicle weights): no tissue weight effects
[3]
  increase of adiponectin concentrations: over 60%
[4]
  injection site tolerability: acceptable
[5]
  drug exposure at 24 hours post dose associated with weight loss: above 0.02 ng/mL
[5]; iv, 0.9 mg/m2
  AUC (0-24 hr) measured range: 8.57 to 13.6 ng·h/mL
  T1/2 (H) λz (terminal): 5.41±2.82 H
  average AUC (0-24 hr): 10.5 ng·h/mL
  average AUC (0-∞): 11 ng·h/mL
  average Cmax: 2.1 ng/mL
  terminal half life: 5.4 h
[6]; 0.1 and 0.3 mg/m^2 twice weekly
  efficacy (weight loss): Lack of efficacy
[6]; administered biweekly
  dose with which maximum efficacy is obtained: ~0.02 mg/kg
[6]; administered twice weekly
  doses at which weight loss efficacy is obtained: ≥ 0.02 mg/kg
[6]; administered twice weekly (~1.8 mg dose)
  dose at which weight loss plateaus: 0.9 mg/m^2
[6]; after twice weekly regimen over 26 days
  weight loss at follow up check at day 36: substantially sustained
[6]; [10]
  Weight Change (%), Average: −0.7%
  Weight Change (kg), Average: -0.7 kg
[6]; average of 9 patients, 0.9 mg/m^2 cohort, prior to second dose
  Ending weight (kg), Average: 103.9 kg
[6]; [11]
  Weight Change: 0 kg and −0.5 kg and −0.7 kg and 0.2 kg and −0.6 kg and −1.1 kg (2×) and −0.9 kg and −1.9 kg
  Weight Change (%): 0.0% and −0.5% and −0.6% (2×) and 0.2% and −1.1% and −0.9% and −1.9% and −1.0%
[6]; individual subject, 0.9 mg/m^2 cohort, prior to second dose three or four days after first dose
  Ending weight: 107.9 kg and 105 kg and 118 kg and 96.2 kg and 95.7 kg and 100.4 kg and 103.7 kg and 100.5 kg and 107.5 kg
[6]; obese patients, twice weekly
  dose per kg of excess body weight to be exceeded to see effects: > 40 μg of drug per kg of excess body weight
[6]; of the 9 subjects at 0.9 mg/m^2, twice weekly, over 26 days of exposure
  number of patients showing greater than 3-4 percent body weight loss: 7
[6]; single administration of 0.9 mg/m2 dose
  duration of weight reduction after single administration: 4 days
